Laboratory results: ChEMBL document CHEMBL1201861, “Genomics of Drug Sensitity in Cancer screening data, Wellcome Trust Sanger Institute”

Experiments:
Assay in all cases: cells
Type in all cases: functional, cell-based, Homo sapiens
NCI-H1092 = details: Homo sapiens, NCI-H1092;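 note: cell growth inhibition measured with a cell viability assay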
Description: SANGER: Inhibition of human NCI-H1092 cell growth in a cell viability assay.

MS-1 = details: Homo sapiens, MS-1;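 note: growth inhibition of MS-1 cells, read out by cell viability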
Description: SANGER: Inhibition of human MS-1 cell growth in a cell viability assay.

SK-N-DZ = details: Homo sapiens, SK-N-DZ;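 note: growth inhibition of the cancer cell line, read out through a viability assay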
Description: SANGER: Inhibition of human SK-N-DZ cell growth in a cell viability assay.

HD-MY-Z = details: Homo sapiens, HD-MY-Z;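 note: growth inhibition of HD-MY-Z cells, read out with a cell viability assay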
Description: SANGER: Inhibition of human HD-MY-Z cell growth in a cell viability assay.

NB5 = details: Homo sapiens, NB5;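 note: growth inhibition of NB5 cells, read out as cell viability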
Description: SANGER: Inhibition of human NB5 cell growth in a cell viability assay.

NCI-H526 = details: Homo sapiens, NCI-H526;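 note: growth inhibition of the human NCI-H526 cell line, measured by a cell viability assay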
Description: SANGER: Inhibition of human NCI-H526 cell growth in a cell viability assay.

L-363 = details: Homo sapiens, L-363
Description: SANGER: Inhibition of human L-363 cell growth in a cell viability assay.

TGBC1TKB = details: Homo sapiens, TGBC1TKB;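 note: growth inhibition of TGBC1TKB cells, read out by a cell viability assay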
Description: SANGER: Inhibition of human TGBC1TKB cell growth in a cell viability assay.

TGW = details: Homo sapiens, TGW;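 note: growth inhibition of human TGW cells, read out with a cell viability assay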
Description: SANGER: Inhibition of human TGW cell growth in a cell viability assay.

NCI-H69 = details: Homo sapiens, NCI-H69;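 note: growth inhibition of the cell line, read out with a cell viability assay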
Description: SANGER: Inhibition of human NCI-H69 cell growth in a cell viability assay.

NB6 = details: Homo sapiens, NB6
Description: SANGER: Inhibition of human NB6 cell growth in a cell viability assay.

SNU-5 = details: Homo sapiens, SNU-5;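 note: cell viability readout used to measure growth inhibition in human NCI-SNU-5 cells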
Description: SANGER: Inhibition of human NCI-SNU-5 cell growth in a cell viability assay.

GB-1 = details: Homo sapiens, GB-1;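 note: growth of GB-1 cells judged by a viability assay, IC50 marks the concentration inhibiting growth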
Description: SANGER: Inhibition of human GB-1 cell growth in a cell viability assay.

NB69 = details: Homo sapiens, NB69;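 note: growth inhibition of NB69 cells, determined by a cell viability assay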
Description: SANGER: Inhibition of human NB69 cell growth in a cell viability assay.

LU-139 = details: Homo sapiens, LU-139
Description: SANGER: Inhibition of human LU-139 cell growth in a cell viability assay.

OCUB-M = details: Homo sapiens, OCUB-M;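 note: growth inhibition of the cancer cell line, read out through a cell viability assay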
Description: SANGER: Inhibition of human OCUB-M cell growth in a cell viability assay.

NB12 = details: Homo sapiens, NB12;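 note: growth inhibition of human NB12 cells, read out by a cell viability assay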
Description: SANGER: Inhibition of human NB12 cell growth in a cell viability assay.

CP66-MEL = details: Homo sapiens, CP66-MEL;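 note: growth inhibition of CP66-MEL cells determined in a cell viability assay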
Description: SANGER: Inhibition of human CP66-MEL cell growth in a cell viability assay.

AM-38 = details: Homo sapiens, AM-38;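 note: growth inhibition of AM-38 cells of human origin, read out by a cell viability assay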
Description: SANGER: Inhibition of human AM-38 cell growth in a cell viability assay.

C8166 = details: Homo sapiens, C8166;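 note: growth inhibition of human C8166 cells measured by a cell viability assay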
Description: SANGER: Inhibition of human C8166 cell growth in a cell viability assay.

DMS-79 = details: Homo sapiens, DMS-79;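 note: growth inhibition measured with a cell viability assay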
Description: SANGER: Inhibition of human DMS-79 cell growth in a cell viability assay.

SK-N-FI = details: Homo sapiens, SK-N-FI;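 note: cell viability assay measuring growth inhibition of human SK-N-FI cells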
Description: SANGER: Inhibition of human SK-N-FI cell growth in a cell viability assay.

HOP-62 = details: Homo sapiens, HOP-62;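 note: cell growth inhibition determined with a viability assay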
Description: SANGER: Inhibition of human HOP-62 cell growth in a cell viability assay.

HCC2157 = details: Homo sapiens, HCC2157;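 note: growth inhibition of the cancer cell line, read out as cell viability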
Description: SANGER: Inhibition of human HCC2157 cell growth in a cell viability assay.

DOHH-2 = details: Homo sapiens, DOHH-2;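 note: growth inhibition of human DOHH-2 cells, read out with a cell viability assay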
Description: SANGER: Inhibition of human DOHH-2 cell growth in a cell viability assay.

NTERA-2-cl-D1 = details: Homo sapiens, NTERA-2-cl-D1;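 note: inhibition of cell growth, measured with a cell viability assay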
Description: SANGER: Inhibition of human NTERA-S-cl-D1 cell growth in a cell viability assay.

ES1 = details: Homo sapiens, ES1;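 note: growth inhibition of ES1 cells, read out with a cell viability assay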
Description: SANGER: Inhibition of human ES1 cell growth in a cell viability assay.

MSTO-211H = details: Homo sapiens, MSTO-211H
Description: SANGER: Inhibition of human MSTO-211H cell growth in a cell viability assay.

CTV-1 = details: Homo sapiens, CTV-1;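 note: growth inhibition of the cell line, read out with a cell viability assay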
Description: SANGER: Inhibition of human CTV-1 cell growth in a cell viability assay.

IA-LM = details: Homo sapiens, IA-LM;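 note: cell viability assay measuring growth inhibition of human IA-LM cells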
Description: SANGER: Inhibition of human IA-LM cell growth in a cell viability assay.

NCI-H1304 = details: Homo sapiens, NCI-H1304;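 note: growth inhibition of the cancer cell line, measured in a cell viability assay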
Description: SANGER: Inhibition of human NCI-H1304 cell growth in a cell viability assay.

NCI-H747 = details: Homo sapiens, NCI-H747;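 note: growth inhibition of human NCI-H747 cells, read out by a cell viability assay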
Description: SANGER: Inhibition of human NCI-H747 cell growth in a cell viability assay.

ATN-1 = details: Homo sapiens, ATN-1;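 note: growth inhibition of human ATN-1 cells, read out with a cell viability assay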
Description: SANGER: Inhibition of human ATN-1 cell growth in a cell viability assay.

IST-MEL1 = details: Homo sapiens, IST-MEL1;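 note: growth inhibition of the cell line, read out with a cell viability assay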
Description: SANGER: Inhibition of human IST-MEL1 cell growth in a cell viability assay.

NCI-H209 = details: Homo sapiens, NCI-H209;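 note: growth inhibition of human NCI-H209 cells, measured by a cell viability assay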
Description: SANGER: Inhibition of human NCI-H209 cell growth in a cell viability assay.

UACC-257 = details: Homo sapiens, UACC-257
Description: SANGER: Inhibition of human UACC-257 cell growth in a cell viability assay.

A3-KAW = details: Homo sapiens, A3-KAW;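 note: growth inhibition of human A3-KAW cells, read out with a cell viability assay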
Description: SANGER: Inhibition of human A3-KAW cell growth in a cell viability assay.

SW 962 = details: Homo sapiens, SW 962;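 note: growth inhibition of human SW962 cells, read out by a cell viability assay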
Description: SANGER: Inhibition of human SW962 cell growth in a cell viability assay.

VA-ES-BJ = details: Homo sapiens, VA-ES-BJ;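 note: growth inhibition of the VA-ES-BJ cell line, read out by a cell viability assay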
Description: SANGER: Inhibition of human VA-ES-BJ cell growth in a cell viability assay.

EKVX = details: Homo sapiens, EKVX;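 note: growth inhibition of human EKVX cells, read out with a cell viability assay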
Description: SANGER: Inhibition of human EKVX cell growth in a cell viability assay.

HT-144 = details: Homo sapiens, HT-144
Description: SANGER: Inhibition of human HT-144 cell growth in a cell viability assay.

HCC1187 = details: Homo sapiens, HCC1187;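 note: growth inhibition of HCC1187 cells, read out with a cell viability assay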
Description: SANGER: Inhibition of human HCC1187 cell growth in a cell viability assay.

HEL = details: Homo sapiens, HEL;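 note: growth inhibition of HEL cells, read out with a cell viability assay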
Description: SANGER: Inhibition of human HEL cell growth in a cell viability assay.

KNS-81-FD = details: Homo sapiens, KNS-81-FD;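 note: growth inhibition of KNS-81-FD cells, read out with a cell viability assay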
Description: SANGER: Inhibition of human KNS-81-FD cell growth in a cell viability assay.

SK-UT-1 = details: Homo sapiens, SK-UT-1;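 note: growth inhibition of SK-UT-1 cells, measured by a cell viability assay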
Description: SANGER: Inhibition of human SK-UT-1 cell growth in a cell viability assay.

EW-24 = details: Homo sapiens, EW-24;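 note: human EW-24 cancer cell line, growth inhibition read out via a cell viability assay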
Description: SANGER: Inhibition of human EW-24 cell growth in a cell viability assay.

COR-L88 = details: Homo sapiens, COR-L88;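 note: growth inhibition of COR-L88 cells, read out with a cell viability assay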
Description: SANGER: Inhibition of human COR-L88 cell growth in a cell viability assay.

SCC-15 = details: Homo sapiens, SCC-15;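 note: growth inhibition of SCC-15 cells, read out with a cell viability assay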
Description: SANGER: Inhibition of human SCC-15 cell growth in a cell viability assay.

Measured: IC50

C=C(c1ccc(C(=O)O)cc1)c1cc2c(cc1C)C(C)(C)CCC2(C)C [BEXAROTENE]
3.34 µM: ATN-1
7.36 µM: IA-LM
1.02 µM: OCUB-M
0.165 µM: EKVX
> 8 µM: all other assays above

CCC/C=C/C=C/C(=O)O[C@H]1/C(=C/C(=O)OC)C[C@H]2C[C@H]([C@@H](C)O)OC(=O)C[C@H](O)C[C@@H]3C[C@H](OC(C)=O)C(C)(C)[C@](O)(C[C@@H]4C/C(=C/C(=O)OC)C[C@H](/C=C/C(C)(C)[C@]1(O)O2)O4)O3 [BRYOSTATIN 1]
> 0.008 µM: all assays above

COc1cccc2c1C(=O)c1c(O)c3c(c(O)c1C2=O)C[C@@](O)(C(=O)CO)C[C@@H]3O[C@H]1C[C@H](N)[C@H](O)[C@H](C)O1 [DOXORUBICIN]
0.0448 µM: IST-MEL1
0.05 µM: NCI-H526
0.0152 µM: OCUB-M
0.0699 µM: SW 962
0.00137 µM: NTERA-2-cl-D1
0.00351 µM: HT-144
0.277 µM: NB12
0.321 µM: NCI-H1304
0.213 µM: GB-1
0.253 µM: MS-1
0.188 µM: SCC-15
0.16 µM: KNS-81-FD
0.569 µM: NCI-H69
0.872 µM: EKVX
0.324 µM: L-363
0.57 µM: SNU-5
0.0359 µM: HOP-62
0.97 µM: EW-24
0.0137 µM: ES1
0.0401 µM: A3-KAW
0.0333 µM: C8166
0.0487 µM: NCI-H209
0.282 µM: AM-38
0.135 µM: NCI-H747
0.0792 µM: NB69
0.175 µM: HEL
0.591 µM: HCC1187
0.0334 µM: VA-ES-BJ
0.362 µM: UACC-257
0.0161 µM: CTV-1
0.0635 µM: IA-LM
0.345 µM: LU-139
0.02 µM: DOHH-2 | SK-UT-1
0.128 µM: ATN-1
0.738 µM: NCI-H1092
0.273 µM: HD-MY-Z
0.064 µM: HCC2157
0.36 µM: NB5
> 1.02 µM: all other assays above
